The METLIN SMRT retention time set (Domingo-Almenara et al. 2019)

Assay: gradient 5% acetonitrile 3 min, to 50% in 2 min, to 85% in 15 min, held 3 min, 100 µL/min
Details: column: Zorbax Extend-C18 2.1 x 50 mm; eluents: water / acetonitrile, 0.1% formic acid
How it was run: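 Retention time was recorded from adduct peaks, which were picked computationally and each inspected manually. Pure standards ran in mixtures of ~100 molecules on HPLC coupled to a quadrupole time-of-flight mass spectrometer, in positive and negative ionization mode, through a Zorbax Extend-C18 column (2.1 × 50 mm, 1.8 μm) at 100 μL/min. Eluents were water and acetonitrile, each with 0.1% formic acid.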

SMILES | RP-LC retention time [s]
CCc1nc2cc(-c3noc(-c4sc(C)nc4C)n3)ccc2o1 | 1060
Cc1nn(-c2cc(N3CCCCC3)ncn2)c(C)c1CCC(=O)NC(C)CCc1ccco1 (configuration not stated) | 941
CC(C)CNC(=O)c1ccc2c(c1)N(C)C(=O)CS2 | 708
O=C1CC(/C=C/c2ccccc2)Cc2nc(N3CCN(c4ccccn4)CC3)ncc21 (configuration not stated) | 754
Cc1nnc2ccc(C(=O)NC(C)C)cn12 | 590
Cc1cc(C(=O)N2CCCC2Cc2noc(C3CCCC3)n2)n[nH]1 (configuration not stated) | 750
O=C(NCCc1c[nH]c2ccccc12)c1cc2cccnc2n(Cc2ccccc2)c1=O | 1070
CCCC(=O)Nc1nc(-c2ccc3c(c2)N(CCC)C(=O)CO3)cs1 | 935
CCC(C)NC(=O)c1cc(=O)[nH]c2c(C)cccc12 (configuration not stated) | 661
COc1ccc(N(C)c2nnc(-c3ccc(NC(=O)c4ccco4)cc3)s2)cc1 | 712
O=C(C1CCN(c2nc3ccc(-c4cccs4)nc3s2)CC1)N1CCOCC1 | 826
CCOc1ccc(C(=O)Nc2cccnc2)nn1 | 552
O=C(NCc1cccs1)C1CCCN(S(=O)(=O)c2c[nH]c(C(=O)N3CCCC3)c2)C1 (configuration not stated) | 734
Cc1nc2c(sc3nc(-c4ccccc4)ccc32)c(=O)n1CC(=O)Nc1ccccc1F | 982
Cc1ccc(CNC(=O)Cc2nnc(-c3ccc4ncccc4c3)o2)cc1 | 832
Cc1nc(-c2noc(-c3cccnc3)n2)cn1CC(=O)NC1CCCC1 | 646
CCOc1ccc(NC(=O)Cc2c(C)nn(-c3nc(C)cs3)c2C)cc1 | 974
Cc1ccccc1-n1c(Cn2cnc3c(N)ncnc32)nc2cccc(C)c2c1=O | 719
Cc1cccc(-c2noc(Cc3nnc(-c4ccccc4)o3)n2)c1 | 1030

SMILES | RP-LC retention time [s]
CCn1cc(CCNC(=O)c2sccc2C)c2cccnc21 | 705
CCOc1ccccc1C(=O)NCCS(=O)(=O)N1CCN(c2ccccn2)CC1 | 597
COCCNc1c(-c2ccccc2)nc2sc(C(=O)NC(C)C)c(C)n12 | 749
CCOC(=O)C(=O)Nc1nnc(SCc2nnc(-c3ccccc3C)o2)s1 | 829
CCC(C(=O)NCc1ccc2c(c1)ncn2CC)c1ccccc1 (configuration not stated) | 660
CC(=O)N1CCN(S(=O)(=O)c2ccc3c(c2)OCCCO3)CC1 | 641
c1ccc(-c2nc(C3CCOCC3)no2)c(OC2CCN(C3CCCC3)C2)c1 (configuration not stated) | 661
CCCCCNC(=O)c1ccc2c(c1)CCCN2S(=O)(=O)CC | 896
O=C(NC1CC1)c1nnn2c1COC(c1ccc(Cl)cc1)C2 (configuration not stated) | 859
CCc1nc2cc(N3CCC(C(=O)N(CC)CC)CC3)cnc2nc1CC | 712
O=C(CCc1nnc2c3cc(-c4ccccc4)nn3ccn12)N1CCC2(CC1)OCCO2 | 686
Cc1noc(C)c1C(=O)N1CC(c2nc(CCOC3CCCC3)no2)C1 | 788
O=S(=O)(c1ccc2c(c1)CCC2)N1CCC(Cc2nncn2-c2ccccc2)C1 (configuration not stated) | 846
O=C(NCc1cc(F)cc(F)c1)c1cn2c(n1)CCCC2 | 599
CSc1ccc(-c2nc3cc(C)ccn3c2Nc2ccc(Cl)cc2)cc1 | 840
Cc1ccc(C(=O)Nc2cc(-c3cccs3)no2)cc1 | 993
Cc1cc2c(cc1S(=O)(=O)N1CCCC1C(=O)NC1CCCCCCC1)OC(C)C(=O)N2 (configuration not stated) | 857
Cc1ccc(-c2nc(-c3ccc(-n4ccnc4)nc3)no2)cc1 | 794
Cc1cc(C)c(NS(=O)(=O)c2cc(-c3cc(C(F)(F)F)on3)sc2C)c(C)c1 | 1230

Second part, the molecule after the results:

RP-LC retention time [s] | SMILES
1300 | CC(C)Cc1noc(C2(F)CCN(S(=O)(=O)c3ccc(Cl)c(Cl)c3)CC2)n1
746 | Cc1nc2ccn(Cc3ccco3)c(=O)c2cc1C(=O)N1CCC(C)CC1
746 | COc1cccc(C(=O)N2CCC3(CC2)NC(=O)c2ccc(Cl)cc2N3)c1
824 | CCOC(=O)c1c(C)[nH]c(C(=O)N2CCC(CC(=O)NCc3cccc(Cl)c3)CC2)c1C
690 | CCOC(=O)C1C(=O)NC(N2CCc3ccccc32)=NC1c1ccco1 (configuration not stated)
759 | CCc1ccc(NC(=O)Cn2cc(C(=O)N3CCCC3)c(=O)c3ccc(C)nc32)cc1
865 | CCCn1cc(C2=CCN(S(=O)(=O)c3ccc(NC(C)=O)cc3)CC2)c2cccnc21
783 | COc1ccc(-c2csc(Nc3cc(C)ccn3)n2)cc1
968 | Cc1cccc(N2C(=O)CN(S(=O)(=O)c3ccccc3)CC2(C)C(=O)NC2CCCC2)c1C (configuration not stated)
828 | CCC(=O)N1CCc2c([nH]c3ccccc23)C12C(=O)N(C)c1ccccc12 (configuration not stated)
561 | CN1CCN(c2nc3ccc(NC(=O)C4CC(=O)N(c5ccccc5)C4)cc3s2)CC1 (configuration not stated)
750 | CCCCN1CC(c2nc3ccccc3n2CCOc2ccccc2OC)CC1=O (configuration not stated)
960 | CCn1c(=O)c2ccccc2n(Cc2nc(-c3ccc4c(c3)OCO4)no2)c1=O
860 | Cc1[nH]c(C(=O)N2CCCC(C(=O)NCc3ccccc3)C2)c(C)c1C(=O)OC(C)C (configuration not stated)
643 | CNC(=O)c1ccc(Nc2c(-c3ccc(OC)cc3)nc3cnccn23)cc1
1180 | CCc1cccc2[nH]c3cc([N+](=O)[O-])ccc3c12
609 | CC(=O)N1c2ccc(S(=O)(=O)N3CCCC3)cc2CC1C(=O)N1CCN(c2ccccn2)CC1 (configuration not stated)
1040 | COc1nc2ccccc2nc1N1CCCC(C(=O)NCc2ccccc2)C1 (configuration not stated)
776 | Cc1ccc(CN2CCN(C3CCN(C(=O)Nc4ccc(F)cc4)CC3)C(=O)C2=O)cc1
958 | Cc1ccc(NC(=O)Cn2nc(N(C)C)c3ccccc3c2=O)cc1Cl
923 | Cc1ccc(S(=O)(=O)N2C[C@@H](F)C[C@H]2C(=O)N2CCc3ccccc3C2)cc1
981 | Cn1cc(C2=CCN(S(=O)(=O)c3ccc(F)c(F)c3)CC2)c2cccnc21
813 | COc1ccc(-c2cn3c(C(=O)Nc4ccc5c(c4)OCCO5)csc3n2)cc1
936 | CCc1ccc(C(=O)Nc2ccc3c(c2)Sc2ncccc2C(=O)N3CC)cc1
854 | O=C(Cc1ccc(Br)cc1)NC1CCN(c2cc(-c3ccc(Cl)cc3)[nH]n2)C1 (configuration not stated)
883 | Cc1cc(Cl)ccc1NC(=O)N1C[C@@H]2C[C@H]1C[C@@H]2NS(=O)(=O)c1ccccc1
934 | CC1CCN(S(=O)(=O)c2ccc(-c3nnc(C(=O)NC(C)C)o3)cc2)CC1
784 | O=C(Cc1ccccc1F)NC(c1ccccc1)c1nnc(N2CCCC2)o1 (configuration not stated)
722 | Cc1ncoc1C(=O)N1CC(n2cc(COc3ccc(F)cc3)nn2)C1
